Assay results as given in patent publication US11001590B2, “Pyrazolopyrimidine derivatives” (BAYER ANIMAL HEALTH GMBH, priority 2016, dated 2021).
pEC50: −log10 of the molar value.

Tests used:
[1] = log P by HPLC on reversed phase columns (Method L0; [a] acidic, [b] neutral range)
Procedure: Calibration was done with straight-chain alkan-2-ones (with 3 to 16 carbon atoms) with known log P values (measurement of log P values using retention times with linear interpolation between successive alkanones). Lambda-max-values were determined using UV-spectra from 200 nm to 400 nm and the peak values of the chromatographic signals.

[2] = system: Dirofilaria immitis microfilariae; assay: In vitro assay 3: Dirofilaria immitis microfilariae (DIROIM L1), motility; settings: 72 h, reduction of motility vs negative control, 72 h incubation
C. elegans Slo-1a = C. elegans Slo-1a (Caenorhabditis elegans, UniProt Q95V25); assay: In vitro assay 1: C. elegans Slo-1a, action at a recombinant C. elegans CHO cell line (membrane potential measurement)
C. elegans Slo-1a, sequence (Q95V25 whole entry): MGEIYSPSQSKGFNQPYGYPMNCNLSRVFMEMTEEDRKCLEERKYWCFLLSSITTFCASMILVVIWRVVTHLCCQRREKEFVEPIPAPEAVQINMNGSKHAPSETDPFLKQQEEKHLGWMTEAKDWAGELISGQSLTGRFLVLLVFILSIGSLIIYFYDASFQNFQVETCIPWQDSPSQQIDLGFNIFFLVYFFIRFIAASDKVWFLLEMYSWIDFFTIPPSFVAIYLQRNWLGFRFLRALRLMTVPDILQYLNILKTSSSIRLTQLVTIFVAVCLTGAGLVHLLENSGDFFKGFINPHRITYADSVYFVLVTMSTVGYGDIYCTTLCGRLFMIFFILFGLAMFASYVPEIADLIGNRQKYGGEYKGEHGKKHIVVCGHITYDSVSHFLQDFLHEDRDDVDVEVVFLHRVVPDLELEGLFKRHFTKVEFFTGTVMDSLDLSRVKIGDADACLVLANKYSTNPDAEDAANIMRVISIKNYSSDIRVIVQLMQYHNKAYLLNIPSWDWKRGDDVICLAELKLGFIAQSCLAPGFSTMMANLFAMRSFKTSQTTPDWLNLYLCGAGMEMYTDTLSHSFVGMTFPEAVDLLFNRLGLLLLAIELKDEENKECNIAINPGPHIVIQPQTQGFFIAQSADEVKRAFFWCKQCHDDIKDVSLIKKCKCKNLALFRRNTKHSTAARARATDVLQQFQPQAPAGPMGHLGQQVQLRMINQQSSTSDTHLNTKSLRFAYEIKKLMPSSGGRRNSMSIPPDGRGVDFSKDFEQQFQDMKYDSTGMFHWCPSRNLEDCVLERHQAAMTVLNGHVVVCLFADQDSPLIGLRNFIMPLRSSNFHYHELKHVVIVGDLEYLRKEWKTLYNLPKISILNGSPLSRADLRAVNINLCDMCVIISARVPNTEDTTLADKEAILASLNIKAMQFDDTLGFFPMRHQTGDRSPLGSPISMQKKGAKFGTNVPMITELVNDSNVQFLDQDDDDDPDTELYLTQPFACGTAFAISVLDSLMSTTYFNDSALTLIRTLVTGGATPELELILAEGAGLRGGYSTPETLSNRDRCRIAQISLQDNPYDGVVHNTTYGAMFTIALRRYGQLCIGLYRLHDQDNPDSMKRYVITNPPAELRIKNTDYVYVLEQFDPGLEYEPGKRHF

Structure (SMILES) | chromatographic logP [1] | EC50 [2] | pEC50 (C. elegans Slo-1a)
Cc1nn2c(C(C)C)c(C(=O)N[C@H]3CCc4ccccc43)cnc2c1-c1c(Cl)cccc1Cl [Example 223] | 4.87 | < 1 µg/mL | 7.90
CC(C)c1c(C(=O)N[C@H]2CCc3ccccc32)cnc2c(-c3cc(F)c(F)c(F)c3)c(C(F)(F)F)nn12 [Example 159] | 5.4 | < 10 µg/mL | 6.00
CCN(CC)c1cccc(-c2c(C)nn3c(C(C)C)c(C(=O)N[C@H]4CCc5ccccc54)cnc23)c1 [Example 379] | 2.81 | < 1 µg/mL | 7.00
Cc1nn2c(C3CC3)c(C(=O)N[C@H]3CCc4ccccc43)cnc2c1-c1cccc(N2CC(C#N)C2)c1 [Example 460] | 3.44 | < 10 µg/mL | 7.40
CC(C)c1c(C(=O)N[C@H]2CCc3ccccc32)cnc2c(-c3cccc(F)c3)c(C(F)F)nn12 [Example 429] | 4.57 | < 10 µg/mL | 7.40
CC(C)c1c(C(=O)N[C@H]2CCOc3ccccc32)cnc2c(-c3cc(Cl)cc(C(F)(F)F)c3)c(C(F)(F)F)nn12 [Example 143] | 5.78 | < 10 µg/mL | 7.90
Cc1nn2c(C(C)C)c(C(=O)N[C@H]3CCc4ccccc43)cnc2c1-c1cccc(C(F)(F)F)n1 [Example 179] | 5.39 | < 10 µg/mL | 6.40
Cc1nn2c(C(C)C)c(C(=O)N[C@H]3CCc4ccccc43)cnc2c1-c1cccc(Br)c1 [Example 205] | 5.31 | < 0.1 µg/mL | 7.60
CC(=O)Nc1cccc(-c2c(C)nn3c(C(C)C)c(C(=O)N[C@H]4CCc5ccccc54)cnc23)c1 [Example 298] | 3.3 | < 10 µg/mL | 5.90
Cc1nn2c(C(C)C)c(C(=O)N[C@H]3CCOc4ccccc43)cnc2c1-c1cccc(Cl)n1 [Example 195] | 4.85 | < 10 µg/mL | 6.80
CCS(=O)(=O)c1nn2c(C(C)C)c(C(=O)N[C@H]3CCc4ccccc43)cnc2c1-c1cc(Cl)cc(Cl)c1 [Example 211] | 4.62 | < 10 µg/mL | 5.90
Cc1nn2c(C(C)C)c(C(=O)N[C@H]3CCOc4ccccc43)cnc2c1-c1ccc(F)cc1Cl [Example 218] | 4.51 | < 0.1 µg/mL | 8.80
Cc1nn2c(C(C)C)c(C(=O)N[C@H]3CCc4ccccc43)cnc2c1-c1cc(Cl)c(Cl)c(Cl)c1 [Example 122] | 6.58 | < 0.1 µg/mL | 7.90
CC(C)c1c(C(=O)N[C@H]2CCOc3ccccc32)cnc2c(-c3c(F)cc(F)cc3F)c(C(F)(F)F)nn12 [Example 140] | 4.77 | < 0.1 µg/mL | 7.10
Cc1nn2c(C(C)C)c(C(=O)N[C@H]3CCc4ccccc43)cnc2c1-c1ccnc(Cl)c1 [Example 313] | 4.23 | < 10 µg/mL | 6.80
Cc1nn2c(C(C)C)c(C(=O)N[C@H]3CCc4ccccc43)cnc2c1-c1cccc(OCC#N)c1 [Example 320] | 4.09 | < 10 µg/mL | 7.30
CC(C)c1c(C(=O)N[C@H]2CCc3ccccc32)cnc2c(-c3cncc(F)c3)c(C(F)(F)F)nn12 [Example 155] | 4.25 | < 10 µg/mL | 5.50
Cc1nn2c(C(C)C)c(C(=O)N[C@H]3CCOc4ccccc43)cnc2c1-c1ccc(Cl)cc1Cl [Example 180] | 5.02 | < 0.1 µg/mL | 8.10
Cc1nn2c(C(C)C)c(C(=O)N[C@H]3CCOc4ccccc43)cnc2c1-c1ccc(Cl)cc1 [Example 118] | 4.88 | < 0.1 µg/mL | 7.80
Cc1nn2c(CC(C)C)c(C(=O)N[C@H]3CCc4ccccc43)cnc2c1-c1c(F)cccc1Cl [Example 224] | 4.82 | < 1 µg/mL | 7.50
Cc1nn2c(C(C)C)c(C(=O)N[C@H]3CCc4ccccc43)cnc2c1-c1cccc(N2CCC2)c1 [Example 372] | 4.67 | < 1 µg/mL | 7.80
Cc1nn2c(C(C)C)c(C(=O)N[C@H]3CCOc4ccccc43)cnc2c1-c1cc(F)c(F)c(F)c1 [Example 185] | 4.97 | < 1 µg/mL | 7.90
Cc1nn2c(C(C)C)c(C(=O)N[C@H]3CCc4ccccc43)cnc2c1-c1cccc(S(=O)(=O)C2CC2)c1 [Example 443] | 3.99 | < 10 µg/mL | 7.30
CC(C)c1c(C(=O)N[C@H]2CCc3ccccc32)cnc2c(-c3cccc(N(C)C)c3)c(C(F)F)nn12 [Example 427] | 4.3 | < 10 µg/mL | 7.70
Cc1c(C(=O)N[C@H]2CCCc3ccccc32)cnc2c(-c3ccccc3Cl)c(Cl)nn12 [Example 77] | 4.26 | < 10 µg/mL | 7.20
